Test results taken from US6562602B2, “Fermentation and purification of mycolactones” (priority 2000, dated 2003).

Assay: stability of individual enriched mycolactone isomers in presence and absence of laboratory light, followed by HPLC
Format: physicochemical
Conditions: ambient light versus no light; data not shown
Procedure: To monitor stability of the individual enriched isomers, HPLC data was collected on samples stored in the presence and absence of laboratory light. Measurements were made on samples stored in methanol at 23° C. Initial HPLC sampling was carried out on individual isomers shielded to minimize exposure to laboratory light. These same samples were allowed to remain in the autosampler, shielded from light, for 72 hours before additional HPLC data was collected. Following this, the samples were stored on a lab bench exposed to laboratory light for 52 hours, at which time the final HPLC data time point was collected. Under these conditions, samples that were shielded from light remained stable, showing no change in their respective HPLC chromatograms.

With `CC(=C\C=C\C(C)=C\C(O)C(O)CC(C)O)/C=C(C)/C=C/C(=O)OC1CCCC(=O)OC(C(C)C/C(C)=C/C(C)C(O)CC(C)O)C/C=C(\C)CC1C` (centres unmarked) [mycolactone B] the “equilibration between double bond isomers” value was “occur only when the sample was exposed to ambient light”.
With mycolactone A the “equilibration between double bond isomers” value was “occur only when the sample was exposed to ambient light”.
